# Columns and labels:
# Vibrio rotiferianus = experiment: Antimicrobial activity against Vibrio rotiferianus assessed as bacterial growth inhibition; type: functional
# Vibrio campbellii = experiment: Antimicrobial activity against Vibrio campbellii assessed as bacterial growth inhibition; type: functional
# Vibrio vulnificus [1] = experiment: Antimicrobial activity against Vibrio vulnificus assessed as bacterial growth inhibition; type: functional
# Vibrio parahaemolyticus [2] = experiment: Antimicrobial activity against Vibrio parahaemolyticus MTCC451 assessed as zone of inhibition in diameter per disc at 100 ug measured for 24 to 72 hrs; type: functional; settings: time 24-72 hrs, read-out: IZ
# Vibrio vulnificus [3] = experiment: Antimicrobial activity against Vibrio vulnificus MTCC1145 assessed as zone of inhibition in diameter per disc at 100 ug measured for 24 to 72 hrs; type: functional; settings: time 24-72 hrs, read-out: IZ
# Vibrio alginolyticus [4] = experiment: Antimicrobial activity against Vibrio alginolyticus assessed as bacterial growth inhibition; type: functional
# Vibrio parahaemolyticus [5] = experiment: Antimicrobial activity against Vibrio parahaemolyticus assessed as zone of inhibition; type: functional
# Vibrio parahaemolyticus [6] = experiment: Bactericidal activity against Vibrio parahaemolyticus ATCC 17802 assessed as bacterial growth inhibition mesured after 48 hrs by broth dilution assay; type: functional
# Vibrio parahaemolyticus [7] = experiment: Antimicrobial activity against Vibrio parahaemolyticus ATCC 17802 assessed as bacterial growth inhibition mesured after 48 hrs by broth dilution assay; type: functional
# Vibrio alginolyticus [8] = experiment: Antimicrobial activity against Vibrio alginolyticus MISR 30816 assessed as bacterial growth inhibition measured after 24 hrs by broth microdilution assay; type: functional
# Vibrio vulnificus [9] = experiment: Antimicrobial activity against Vibrio vulnificus MISR 20716 assessed as bacterial growth inhibition measured after 24 hrs by broth microdilution assay; type: functional
# Vibrio parahaemolyticus [10] = experiment: Antimicrobial activity against Vibrio parahaemolyticus MISR 21116 assessed as bacterial growth inhibition measured after 24 hrs by broth microdilution assay; type: functional
# Vibrio anguillarum [11] = experiment: Antimicrobial activity against Vibrio anguillarum assessed as zone of inhibition per disk at 100 ug; type: functional; settings: read-out: IZ
# Vibrio anguillarum [12] = experiment: Antimicrobial activity against Vibrio anguillarum assessed as bacterial growth inhibition by well diffusion method; type: functional
# Vibrio parahaemolyticus [13] = experiment: Antibacterial activity against Vibrio parahaemolyticus assessed as bacterial growth inhibition by agar dilution method; type: functional
# Vibrio alginolyticus [14] = experiment: Antibacterial activity against Vibrio alginolyticus assessed as bacterial growth inhibition; type: functional
# Vibrio cholerae [15] = experiment: Antimicrobial activity against Vibrio cholerae assessed as bacterial growth inhibition; type: functional
# Vibrio parahaemolyticus [16] = experiment: Antimicrobial activity against Vibrio parahaemolyticus assessed as bacterial growth inhibition; type: functional
# Vibrio natriegens = experiment: Antimicrobial activity against Vibrio natriegens assessed as bacterial growth inhibition; type: functional
# Vibrio harveyi [17] = experiment: Antimicrobial activity against Vibrio harveyi BB120 assessed as bacterial growth reduction by bioluminescence based Quorum-Sensing assay; type: functional, organism-based
# Vibrio parahaemolyticus [18] = experiment: Antimicrobial activity against Vibrio parahaemolyticus QDIO-10 assessed as bacterial growth inhibition; type: functional
# Vibrio harveyi [19] = experiment: Antimicrobial activity against Vibrio harveyi QDIO-9 assessed as bacterial growth inhibition; type: functional
# Vibrio harveyi [20] = experiment: Antimicrobial activity against Vibrio harveyi QDIO-9 assessed as bacterial growth inhibition measured after 24 hrs by microtitre plate reader assay; type: functional
# Vibrio anguillarum [21] = experiment: Antimicrobial activity against Vibrio anguillarum QDIO-8 assessed as bacterial growth inhibition measured after 24 hrs by microtitre plate reader assay; type: functional
# Vibrio parahaemolyticus [22] = experiment: Antimicrobial activity against Vibrio parahaemolyticus QDIO-10 assessed as bacterial growth inhibition measured after 24 hrs by microtitre plate reader assay; type: functional
# Vibrio harveyi [23] = experiment: Antimicrobial activity against Vibrio harveyi assessed as zone of inhibition; type: functional
# Vibrio anguillarum [24] = experiment: Antimicrobial activity against Vibrio anguillarum assessed as zone of inhibition; type: functional
# Vibrio splendidus = experiment: Antimicrobial activity against Vibrio splendidus assessed as zone of inhibition; type: functional
# Vibrio sp. [25] = experiment: Antibacterial activity against Vibrio sp. assessed as bacterial growth inhibition relative to control; type: functional
# Vibrio cholerae [26] = experiment: Antibacterial activity against Vibrio cholerae assessed as zone of inhibition measured after 24 to 48 hrs by agar well diffusion assay; type: functional; settings: time 24-48 hrs
# Vibrio alginolyticus [27] = experiment: Antibacterial activity against Vibrio alginolyticus assessed as zone of inhibition measured after 24 to 48 hrs by agar well diffusion assay; type: functional; settings: time 24-48 hrs
# Vibrio parahaemolyticus [28] = experiment: Antibacterial activity against Vibrio parahaemolyticus assessed as zone of inhibition measured after 24 to 48 hrs by agar well diffusion assay; type: functional; settings: time 24-48 hrs
# Vibrio sp. [29] = experiment: Antibacterial activity against Vibrio sp. assessed as bacterial growth inhibition by GC-MS analysis; type: functional
# Vibrio brasiliensis = experiment: Antimicrobial activity against Vibrio brasiliensis assessed as bacterial growth inhibition; type: functional
# Vibrio vulnificus [30] = experiment: Antimicrobial activity against Vibrio vulnificus MCCC E333 assessed as bacterial growth inhibition by resazurin dye based assay; type: functional
# Vibrio vulnificus [31] = experiment: Antimicrobial activity against Vibrio vulnificus MCCC E1758 assessed as bacterial growth inhibition by resazurin dye based assay; type: functional
smiles,measurement,setting,value
Cc1cc(O)c2c(c1)C(=O)c1cc(O)cc(O)c1C2=O [EMODIN],MIC,Vibrio rotiferianus,15.6 µg/mL
same,MIC,Vibrio campbellii,15.6 µg/mL
same,MIC,Vibrio vulnificus [1],15.6 µg/mL
CC[C@@H](O)/C=C/CC(=O)O[C@@H]1/C=C/C=C\C[C@H](O)C[C@@H](O)/C=C/C=C\CCC[C@@H](C)OC(=O)/C=C\C=C\C1,zone of inhibition at 100 µg/disc,Vibrio parahaemolyticus [2],16 mm
same,zone of inhibition at 100 µg/disc,Vibrio vulnificus [3],14.3 mm
C[C@]12CC[C@H](O)[C@](C)(CO)[C@@H]1CC[C@]1(C)[C@@H]2C[C@@H](O)[C@@H]2[C@@]3(C)CC[C@H]([C@](C)(O)CO)[C@@H]3CC[C@]21C,MIC,Vibrio alginolyticus [4],16 µg/mL
CC1(C)C=Cc2c(ccc3c2[N+]([O-])=C2C3CC34NC(=O)[C@@]5(CCCN5C3=O)C[C@H]4C2(C)C)O1 (stereo partly specified),MIC,Vibrio alginolyticus [4],16 µg/mL
same,MIC,Vibrio parahaemolyticus [5]; Vibrio parahaemolyticus,8 µg/mL
COc1ccc(Oc2cc(C)cc(O)c2)c(O[C@@H]2O[C@H](CO)[C@H](O)[C@H](O)[C@H]2O)c1,MBC,Vibrio parahaemolyticus [6],2.5 µM
same,MIC,Vibrio parahaemolyticus [7],0.625 µM
C[C@@H]1CCC/C=C/[C@H](O)C[C@@H](O)C/C=C\C=C\[C@@H](O)C/C=C/C=C\C(=O)O1,MIC,Vibrio alginolyticus [8],64 µg/mL
same,MIC,Vibrio vulnificus [9],64 µg/mL
same,MIC,Vibrio parahaemolyticus [10],64 µg/mL
COc1cc(O)c2c(=O)oc3cc(O)cc(C)c3c2c1,zone of inhibition at 100 µg/disc,Vibrio anguillarum [11],9 mm
C=C(C)[C@H]1O[C@H]2CC[C@@]3(C)[C@@](O)(CC[C@@]4(O)[C@@H]5OC(C)(C)[C@H]6C[C@@H]7C(=C)Cc8c(Cl)cc9[nH]c(c5c9c8[C@@]76O)[C@]34C)[C@]23O[C@@H]3[C@H]1O,MIC,Vibrio anguillarum [12],16 µg/mL
CC(C)[C@H]1C(=O)N(C)[C@@H](C)C(=O)NCCC[C@H](NC(=O)/C=C/C=C/C(=O)O)C(=O)N1C,MIC,Vibrio parahaemolyticus [13],3.13 µM
CCCCCCC(O)CCCCCC/C=C/C(O)C1C=C(NC(C)=O)C(=O)O1 (stereo unspecified),MIC,Vibrio alginolyticus [14],8 µg/mL
O=C(O)c1ccc[nH]1,MIC,Vibrio cholerae [15],50 µg/mL
same,MIC,Vibrio parahaemolyticus [16],25 µg/mL
Cc1cc2c(c(=O)[nH]1)O[C@H]([C@@H](O)CC(C)C)O2,MIC,Vibrio natriegens,0.001 µg/mL
CC(C)CC(=O)NCCc1ccccc1,EC50,Vibrio harveyi [17],9 µg/mL
C=C[C@@]1(C)CCC2=C(C(=O)C=C3C(C)(C)CCC[C@]32O)[C@H]1O,MIC,Vibrio parahaemolyticus [18],8 µg/mL
same,MIC,Vibrio harveyi [19],8 µg/mL
CO[C@](C)(CCCC(C)(C)O)c1ccc(C(=O)O)cc1O,MIC,Vibrio harveyi [20],4 µg/mL
same,MIC,Vibrio anguillarum [21],4 µg/mL
same,MIC,Vibrio parahaemolyticus [22],4 µg/mL
CC(=O)N[C@H]1[C@@H](O[C@]2(C)C=C[C@@H]([C@@H](C)CCC=C(C)C)CC2)O[C@H](CO)[C@@H](O)[C@@H]1O,inhibition zone (IZ),Vibrio parahaemolyticus [5],6.1 mm
same,MIC,Vibrio harveyi [23],6.1 µg/mL
same,MIC,Vibrio anguillarum [24],6.1 µg/mL
same,MIC,Vibrio splendidus,6.1 µg/mL
COC(OC)c1ccc2c(c1O)C(=O)c1ccccc1C2=O,MIC,Vibrio rotiferianus,15.6 µg/mL
same,MIC,Vibrio campbellii,15.6 µg/mL
same,MIC,Vibrio vulnificus [1],15.6 µg/mL
COc1cc(-c2ccc(O)cc2)c(OC)c(O)c1-c1ccc(O)cc1 [TERPHENYLLIN],inhibition (INH),Vibrio sp. [25],>80%
CCCCCCCCCCCCC(=O)NCCC(C)C,inhibition zone (IZ),Vibrio cholerae [26],13.7 mm
same,inhibition zone (IZ),Vibrio alginolyticus [27],16.3 mm
same,inhibition zone (IZ),Vibrio parahaemolyticus [28],9.66 mm
O=C1CCC2(CCC(=O)N2)N1,MIC,Vibrio sp. [29],≤ 0.78 µg/mL
CC(C)[C@@H](C)/C=C/[C@@H](C)[C@H]1CC[C@H]2C3=CC(=O)[C@@]45C[C@@H](O)CC[C@]4(C)[C@]3(CC[C@]12C)O5,MIC,Vibrio brasiliensis,16 µg/mL
COC(=O)[C@@H]1CCCN1C(=O)c1cc2c([nH]c3cc(OC)ccc32)c(C=C(C)C)n1,MIC,Vibrio alginolyticus [4],32 µg/mL
Cc1c(O)c(C)c2c(c1O)C(=O)O[C@](C)(O)[C@H]2C,MIC,Vibrio vulnificus [30],15.3 µg/mL
same,MIC,Vibrio vulnificus [31],16.6 µg/mL
CC(=O)CCC[C@H](C)[C@@H]1C=C[C@@](C)(O[C@H]2O[C@H](CO)[C@@H](O)[C@H](O)[C@H]2NC(C)=O)CC1,inhibition zone (IZ),Vibrio parahaemolyticus [5],6.1 mm
same,MIC,Vibrio harveyi [23],6.1 µg/mL
same,MIC,Vibrio anguillarum [24],6.1 µg/mL
same,MIC,Vibrio splendidus,6.1 µg/mL

# — ChEMBL document CHEMBL5360560, “Anti-Vibrio potential of natural products from marine microorganisms” (Eur J Med Chem, 2023)
